Laboratory results as given in BigSolDB 2.1.

Brc1c(Br)c(Br)c(Oc2c(Br)c(Br)c(Br)c(Br)c2Br)c(Br)c1Br
solubility (mole fraction)
Settings	in THF	in acetone	in ethyl acetate	in limonene	in toluene
283 K	0.00449	4.4e-05	0.000133	0.00162	0.00274
293 K	0.00524	6e-05	0.000173	0.00242	0.00362
303 K	0.00607	9.1e-05	0.000252	0.00282	0.0052
313 K	0.00695	0.000119	0.000346	0.00397	0.00651
323 K	0.0085	0.000145	0.000455	0.00485	0.00771
